Experimental findings from patent US8901115B2, “Cyclic P1 linkers as factor XIa inhibitors” (Bristol-Myers Squibb Company, priority 2011, dated 2014) are described below.

Counter-ions that a name gives are not always drawn. Like-named read-outs stand apart in the source and are kept apart here.

For series [1], the target named is purified human Factor XIa (Homo sapiens (Human), UniProt P03951). The series is described as follows: Factor XIa enzyme inhibition assay (chromogenic substrate S-2366). The format is biochemical. The procedure: The effectiveness of compounds of the present invention as inhibitors of the coagulation Factors XIa, VIIa, IXa, Xa, XIIa, plasma kallikrein or thrombin, can be determined using a relevant purified serine protease, respectively, and an appropriate synthetic substrate. The rate of hydrolysis of the chromogenic or fluorogenic substrate by the relevant serine protease was measured both in the absence and presence of compounds of the present invention. Assays were conducted at room temperature or at 37° C. […] A decrease in the rate of absorbance or fluorescence change in the presence of inhibitor is indicative of enzyme inhibition. Such methods are known to one skilled in the art. The results of this assay are expressed as the inhibitory constant, Ki.
Values of Ki were determined by allowing the protease to react with the substrate in the presence of the inhibitor. Reactions were allowed to go for periods of 20-180 minutes (depending on the protease) and the velocities (rate of absorbance or fluorescence change versus time) were measured. The following relationships were used to calculate Ki values: (vo−vs)/vs=I/(Ki(1+S/Km)) for a competitive inhibitor with one binding site; or vs/vo=A+((B−A)/(1+((IC50/(I))^n))); and Ki=IC50/(1+S/Km) for a competitive inhibitor where: […]

For series [2] the following is noted: rcm bond, 12-membered ring.
The conditions of series [3]: from C=CCCC(=O)Nc1cc(NC(=O)OC)ccc1-c1cn(COCC[Si](C)(C)C)c([C@H](CC=C)NC(=O)OC(C)(C)C)n1; rcm bond; 13-membered ring; 1.5 h.
The mark [4] stands for this setting: substrate S-2366, 50 mM HEPES pH 7.4.

By Ki is commonly meant the dissociation constant of the complex between target and ligand, obtained from inhibition or displacement.

Chain of purified human Factor XIa (P03951 388-625): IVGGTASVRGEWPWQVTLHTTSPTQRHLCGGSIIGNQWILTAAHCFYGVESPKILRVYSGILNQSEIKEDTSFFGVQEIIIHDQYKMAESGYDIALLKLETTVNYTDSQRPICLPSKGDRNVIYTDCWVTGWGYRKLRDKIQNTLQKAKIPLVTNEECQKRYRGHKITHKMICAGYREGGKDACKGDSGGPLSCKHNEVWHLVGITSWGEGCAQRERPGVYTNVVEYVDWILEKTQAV
Chain of purified human Factor XIa (P03951 19-387 partner): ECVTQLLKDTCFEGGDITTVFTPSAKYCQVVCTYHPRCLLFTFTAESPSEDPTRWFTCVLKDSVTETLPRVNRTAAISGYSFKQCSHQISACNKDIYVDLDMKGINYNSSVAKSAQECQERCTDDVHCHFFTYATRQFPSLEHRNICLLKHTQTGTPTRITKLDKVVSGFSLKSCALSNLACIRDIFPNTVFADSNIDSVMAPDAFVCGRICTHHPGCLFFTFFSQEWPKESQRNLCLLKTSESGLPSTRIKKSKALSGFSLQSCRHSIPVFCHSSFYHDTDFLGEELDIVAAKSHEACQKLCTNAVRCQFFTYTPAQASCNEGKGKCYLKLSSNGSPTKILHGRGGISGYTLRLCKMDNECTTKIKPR

As to `COC(=O)Nc1ccc2c(c1)NC(=O)CC/C=C/C[C@H](N1CCC(c3cc(Cl)ccn3)NC1=O)c1nc-2c[nH]1` (single isomer, unassigned) [Example 40], the affinity in series [1] (setting [4]) corresponds to a Ki of 24.4 nM. Same read-out and setting: in the case of `COC(=O)Nc1ccc2c(c1)NC(=O)[C@H](C)CCC[C@H](N1CCC(c3nccc(Cl)c3F)NC1=O)c1nc-2c[nH]1` (single isomer, unassigned) [Example 58] it was < 5 nM; in that of `COC(=O)Nc1ccc2c(c1)N[C@@H](C(=O)OC)CCCC[C@H](N1CCC(c3cc(Cl)ccc3OC(F)F)OC1=O)c1nc-2c(C#N)[nH]1` (single isomer, unassigned) [Example 7], 41.8 nM; in that of `COC(=O)Nc1ccc2c(c1)NC(=O)[C@H](C)CCC[C@H](N1CC[C@@H](c3c(F)ccc(Cl)c3F)NC1=O)c1nc-2c[nH]1` [Example 70], < 5 nM.

With `COC(=O)Nc1ccc2c(c1)NC(=O)[C@@H](C)CCC[C@H](N1CC[C@@H](c3c(F)ccc(Cl)c3F)OC1=O)c1ccnc-2c1` [Example 119], the Ki in series [1] (setting [4]) is 9.6 nM. As for `COC(=O)Nc1ccc2c(c1)NC(=O)[C@H](C)CCC[C@H](N1CCC(c3cccc(Cl)c3)CC1=O)c1cc-2ccn1` (single isomer, unassigned) [Example 152], the inhibition constant Ki in series [1] (setting [4]) is < 5 nM. On the same count and under the same terms, then `COC(=O)Nc1ccc2c(c1)NC(=O)[C@H](C)CCC[C@H](N1CC[C@@H](c3nccc(Cl)c3F)N(C)C1=O)c1nc-2c[nH]1` [Example 71], with 330 nM. With `COC(=O)Nc1ccc2c(c1)NC(=O)[C@H](C)CCC[C@H](N1CCC(c3c(Cl)ccc(Cl)c3F)NC1=O)c1nc-2c[nH]1` (stereo partly drawn) [Example 18, Methyl N-[(10R,14S)-14-[4-(3,6-dichloro-2-fluorophenyl)-2-oxo-1,3-diazinan-1-yl]-10-methyl-9-oxo-8,16,18-triazatricyclo[13.2.1.0^2,7]octadeca-1(17),2,4,6,15(18)-pentaen-5-yl]carbamate], in series [1] (setting [4]), the inhibitory constant (Ki) was found to be 6.83 nM. The compound `COC(=O)Nc1ccc2c(c1)NC(=O)[C@H](C)/C=C/C[C@H](NC(=O)OC(C)(C)C)c1nc-2cn1COCC[Si](C)(C)C` registered a ring closure, isolated yield in series [2] (from C=CC[C@H](NC(=O)OC(C)(C)C)c1nc(-c2ccc(NC(=O)OC)cc2NC(=O)[C@H](C)C=C)cn1COCC[Si](C)(C)C, Grubbs II (0.4 eq)/pTsOH, DCM, 9.7 mM, 40.0 °C) of 41%. As to `COC(=O)Nc1ccc2c(c1)NC(=O)[C@H](C)CCC[C@H](N1CCC(c3c(C(F)(F)F)ccc(Cl)c3F)OC1=O)c1cc-2ccn1` (single isomer, unassigned) [Example 133], the inhibition constant Ki in series [1] (setting [4]) was 69.3 nM.

`COC(=O)Nc1ccc2c(c1)NC(=O)C(C)/C=C/C[C@H](NC(=O)OC(C)(C)C)c1cc-2cnc1F` (stereo partly shown) returned a ring closure, isolated yield in series [2] (from C=CC[C@H](NC(=O)OC(C)(C)C)c1cc(-c2ccc(NC(=O)OC)cc2NC(=O)C(C)C=C)cnc1F, Grubbs II (0.4 eq), microwave, DCE, 17.3 mM, 120.0 °C) of 68%.

For `COC(=O)Nc1ccc2c(c1)NC(=O)C(C)CCC[C@H](N1CC[C@H](c3c(F)ccc(Cl)c3F)OC1=O)c1cc-2cnn1` (stereo partly drawn) [Example 13, Methyl N-[(14S)-14-[(6R)-6-(3-chloro-2,6-difluorophenyl)-2-oxo-1,3-oxazinan-3-yl]-10-methyl-9-oxo-8,16,17-triazatricyclo[13.3.1.0^2,7]nonadeca-1(19),2(7),3,5,15,17-hexaen-5-yl]carbamate], in series [1] (setting [4]), the inhibition constant (Ki) is < 5 nM. For the compound `COC(=O)Nc1ccc2c(c1)NC(=O)[C@H](C)CCC[C@H](N1CC[C@@H](c3c(F)ccc(Cl)c3F)OC1=O)c1cc-2ccn1` [Example 100], the Ki in series [1] (setting [4]) was < 5 nM. The same measure, in the same setting: in the case of `COC(=O)Nc1ccc2c(c1)N[C@@H](C(=O)OC)CCCC[C@H](N1CCC(c3cccc(Cl)c3)OC1=O)c1nc-2c[nH]1` (stereo partly drawn) [Example 5, Methyl (9R,14S)-14-(6-(3-chlorophenyl)-2-oxo-1,3-oxazinan-3-yl)-5-((methoxycarbonyl)amino)-8,16,18-triazatricyclo[13.2.1.0^2,7]octadeca-1(17),2,4,6,15(18)-pentaene-9-carboxylate] it was 12.2 nM; in that of `COC(=O)Nc1ccc2c(c1)NC(=O)CCCC[C@H](N1CCC(c3cccc(Cl)c3)CC1=O)c1nc-2c[nH]1` (single isomer, unassigned) [Example 147], 9.48 nM.

In the case of `COC(=O)Nc1ccc2c(c1)N[C@@H](C(=O)OC)CCCC[C@H](N1CCC(c3cccc(Cl)c3)OC1=O)c1nc-2c(C#N)[nH]1` (single isomer, unassigned) [Example 79], the affinity in series [1] (setting [4]) corresponds to a Ki of 13.3 nM. In turn, `COC(=O)Nc1ccc2c(c1)NC(=O)[C@H](C)CCC[C@H](N1CC[C@H](c3nccc(Cl)c3F)N(C)C1=O)c1nc-2c[nH]1` [Example 72] gave an inhibition constant Ki in series [1] (setting [4]) of 28.8 nM.

With `COC(=O)Nc1ccc2c(c1)NC(=O)CC/C=C/C[C@H](NC(=O)OC(C)(C)C)c1nc-2cn1COCC[Si](C)(C)C`, the ring closure, yield after HPLC in series [3] amounted to 42%. Compound `COC(=O)Nc1ccc2c(c1)N[C@@H](C(=O)OC)C/C=C/C[C@H](NC(=O)OC(C)(C)C)c1nc-2cn1COCC[Si](C)(C)C` came in with a ring closure, isolated yield in series [2] (from C=CC[C@H](NC(=O)OC(C)(C)C)c1nc(-c2ccc(NC(=O)OC)cc2N[C@H](CC=C)C(=O)OC)cn1COCC[Si](C)(C)C, Grubbs II (0.4 eq), microwave, DCE, 40.0 mM, 120.0 °C) of 23%. For `COC(=O)Nc1ccc2c(c1)NC(=O)[C@H](C)CCC[C@H](N1CCN(c3cccc(Cl)c3F)CC1=O)c1cc-2ccn1` [Example 20, Methyl N-[(10R,14S)-14-[4-(3-chloro-2-fluorophenyl)-2-oxopiperazin-1-yl]-10-methyl-9-oxo-8,16-diazatricyclo[13.3.1.0^2,7]nonadeca-1(19),2(7),3,5,15,17-hexaen-5-yl]carbamate], in series [1] (setting [4]), the inhibition constant (Ki) was determined as 7.46 nM. In the case of `COC(=O)Nc1ccc2c(c1)NC(=O)CC/C=C/C[C@H](N1CCC(C)(c3c(F)ccc(Cl)c3F)OC1=O)c1nc-2c(Cl)[nH]1` (single isomer, unassigned) [Example 99], the inhibition constant Ki in series [1] (setting [4]) was determined as 1930 nM.

On to `COC(=O)Nc1ccc2c(c1)NC(=O)CC/C=C/C[C@H](N1CCC(C)(c3c(F)ccc(Cl)c3F)OC1=O)c1nc-2c(Cl)[nH]1` (stereo partly drawn) [Example 32, Methyl N-[(12E,15S)-18-chloro-15-[6-(3-chloro-2,6-difluorophenyl)-6-methyl-2-oxo-1,3-oxazinan-3-yl]-9-oxo-8,17,19-triazatricyclo[14.2.1.0^2,7]nonadeca-1(18),2,4,6,12,16(19)-hexaen-5-yl]carbamate, TFA salt], for which the Ki in series [1] (substrate S-2366, 50 mM HEPES pH 7.4, TFA salt) was 2460 nM.

Turning to `C[C@@H]1CCC[C@H](N2CC[C@H](c3c(F)ccc(Cl)c3F)OC2=O)c2cc(ccn2)-c2cc(C(=O)O)ccc2NC1=O` [Example 26, (10R,14S)-14-[(6R)-6-(3-chloro-2,6-difluorophenyl)-2-oxo-1,3-oxazinan-3-yl]-10-methyl-9-oxo-8,16-diazatricyclo[13.3.1.0^2,7]nonadeca-1(19),2,4,6,15,17-hexaene-4-carboxylic acid, TFA salt], the Ki in series [1] (setting [4]) is < 5 nM. On the same count and under the same terms, then `COC(=O)Nc1ccc2c(c1)NC(=O)CC/C=C/C[C@H](N1CC[C@H](c3cc(Cl)ccc3OC(F)F)OC1=O)c1nc-2c[nH]1` [Example 77], with 7.46 nM. As to `COC(=O)Nc1ccc2c(c1)N(C(=O)C(F)(F)F)[C@@H](C(=O)OC)CC=CC[C@H](NC(=O)OC(C)(C)C)c1nc-2cn1COCC[Si](C)(C)C`, the ring closure, isolated yield in series [2] (from C=CC[C@H](NC(=O)OC(C)(C)C)c1nc(-c2ccc(NC(=O)OC)cc2N(C(=O)C(F)(F)F)[C@H](CC=C)C(=O)OC)cn1COCC[Si](C)(C)C, Grubbs II (0.03 eq), DCE, 37.7 mM, 85.0 °C, 16.0 h) turned out to be 29%. With `COC(=O)Nc1ccc2c(c1)NC(=O)CCCC[C@H](N1CCC(c3cccc(Cl)c3)OC1=O)c1nc-2c[nH]1` (stereo partly drawn) [Example 4, Methyl ((14S)-14-(6-(3-chlorophenyl)-2-oxo-1,3-oxazinan-3-yl)-9-oxo-8,16,18-triazatricyclo[13.2.1.0^2,7]octadeca-1(17),2,4,6,15(18)-pentaen-5-yl)carbamate], the inhibition constant Ki in series [1] (setting [4]) stood at 3400 nM.

Turning to `COC(=O)Nc1ccc2c(c1)NC(=O)[C@H](C)CCCC(N1CC(=O)N(c3c(C(F)(F)F)ccc(Cl)c3F)CC1=O)c1cc-2ccn1` (single isomer, unassigned) [Example 37, TFA salt], the inhibition constant Ki in series [1] (setting [4]) is < 5 nM.

`COC(=O)Nc1ccc2c(c1)NC(=O)C(C)C=CC[C@H](NC(=O)OC(C)(C)C)c1cc-2ccn1` (single isomer, unassigned; diastereomer a) gave a ring closure, isolated yield in series [2] (from C=CC[C@H](NC(=O)OC(C)(C)C)c1cc(-c2ccc(NC(=O)OC)cc2NC(=O)C(C)C=C)ccn1, Grubbs II (0.1 eq)/pTsOH, DCM, 4.0 mM, 40.0 °C) of 25%.
